Molecules are shown by their SMILES.

Chain of IDO (P14902 whole entry): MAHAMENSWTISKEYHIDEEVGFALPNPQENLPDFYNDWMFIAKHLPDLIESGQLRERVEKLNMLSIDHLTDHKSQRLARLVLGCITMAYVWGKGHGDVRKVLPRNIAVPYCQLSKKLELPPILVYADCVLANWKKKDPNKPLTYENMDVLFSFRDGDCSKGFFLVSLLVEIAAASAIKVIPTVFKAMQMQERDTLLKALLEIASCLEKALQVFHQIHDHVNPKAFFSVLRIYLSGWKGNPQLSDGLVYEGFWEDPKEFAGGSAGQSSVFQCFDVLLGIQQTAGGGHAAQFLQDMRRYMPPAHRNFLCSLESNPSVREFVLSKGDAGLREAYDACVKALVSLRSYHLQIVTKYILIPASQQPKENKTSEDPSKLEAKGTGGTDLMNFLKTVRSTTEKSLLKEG

This assay has as its target IDO (Homo sapiens, UniProt P14902). The assay can be described thus: LLE_IDO_ABS_DR (IDO assay).
Regarding `[2H]C([2H])(C(C)C)N(c1ccc(-c2sccc2C(=O)O)cc1NC(=O)Nc1ccccc1F)C1CCCCC1` [Example 36, 2-(4-(Cyclohexyl(1,1-dideutero-2-methylpropyl)amino)-3-(3-(2-fluorophenyl)ureido)phenyl)thiophene-3-carboxylic acid], the IC50 came to 5.9 nM. Regarding `Cc1ccc(NC(=O)Nc2cc(-c3ccccc3-c3nnn[nH]3)ccc2N(CCC(F)(F)F)CC2CC2)cc1` [Example 63, 1-(4-((cyclopropylmethyl) (3,3,3-trifluoropropyl)amino)-2′-(1H-tetrazol-5-yl)biphenyl-3-yl)-3-p-tolylurea], the IC50 was found to be 120 nM.

`Cc1ccc(NC(=O)Nc2cc(-c3ccccc3C(=O)O)ccc2N(CCC(F)(F)F)CC2CC2)cc1` [Example 64, 4′-((cyclopropylmethyl) (3,3,3-trifluoropropyl)amino)-3′-(3-p-tolylureido)biphenyl-2-carboxylic acid] gave an IC50 of 290 nM. For the molecule `COc1ccc(-c2ccc(N(CCC(F)(F)F)CC3CC3)c(NC(=O)Nc3ccc(C)cc3)c2)cc1C(=O)O` [Example 65, 4′-((cyclopropylmethyl) (3,3,3-trifluoropropyl)amino)-4-methoxy-3′-(3-p-tolylureido) biphenyl-3-carboxylic acid], the IC50 is 3700 nM. For the molecule `Cc1ccc(NC(=O)Nc2cc(-c3ccccc3-c3nnn[nH]3)ccc2N(CC2CC2)CC2CC2)cc1` [Example 66, 1-(4-(bis(cyclopropyl-methyl)amino)-2′-(1H-tetrazol-5-yl)biphenyl-3-yl)-3-p-tolylurea], the IC50 was 30 nM. Molecule `Cc1ccc(NC(=O)Nc2cc(-c3ccccc3C(=O)O)ccc2N(CC2CC2)CC2CC2)cc1` [Example 67, 4′-(bis (cyclopropylmethyl)amino)-3′-(3-p-tolylureido)biphenyl-2-carboxylic acid] returned an IC50 of 350 nM. As to `CC(C)CN(CC(C)C)c1ccc(-c2ccc(F)cc2C(=O)O)cc1NC(=O)Nc1ccccc1Cl` [Example 68, 3′-(3-(2-chlorophenyl)ureido)-4′-(diisobutylamino)-4-fluorobiphenyl-2-carboxylic acid], the IC50 came to 560 nM.

Take `Cc1ccccc1NC(=O)Nc1cc(-c2cccc(F)c2C(=O)O)ccc1N(CC(C)C)CC(C)C` [Example 69, 4′-(diisobutylamino)-3-fluoro-3′-(3-o-tolylureido)biphenyl-2-carboxylic acid]: half-maximal inhibition (IC50) required 890 nM. Then `Cc1ccc(NC(=O)Nc2cc(-c3ccc(F)cc3C(=O)O)ccc2N(CC(C)C)CC(C)C)cc1` [Example 70, 4′-(diisobutylamino)-4-fluoro-3′-(3-p-tolylureido)biphenyl-2-carboxylic acid], with 110 nM; and `COc1ccc(-c2ccc(N(CC(C)C)CC(C)C)c(NC(=O)Nc3ccc(C)cc3)c2)c(NS(=O)(=O)C(F)(F)F)c1` [Example 71, N-(4′-(diisobutylamino)-4-methoxy-3′-(3-p-tolylureido)biphenyl-2-yl)-1,1,1-trifluoromethane-sulfonamide], with 1740 nM; and `CCN(CCOC)c1ccc(-c2ccccc2C(=O)O)cc1NC(=O)Nc1ccc(C)cc1` [Example 72, 4′-(ethyl(2-methoxyethyl)amino)-3′-(3-p-tolylureido)biphenyl-2-carboxylic acid], with 850 nM.

`CCN(CCOC)c1ccc(-c2ccccc2-c2nnn[nH]2)cc1NC(=O)Nc1ccc(C)cc1` [Example 73, 1-(4-(ethyl(2-methoxyethyl)amino)-2′-(1H-tetrazol-5-yl)biphenyl-3-yl)-3-p-tolylurea] had an IC50 of 150 nM.

Molecule `Cc1ccc(NC(=O)Nc2cc(-c3ccccc3NS(C)(=O)=O)ccc2N(CC(C)C)CC(C)C)cc1` [Example 74, N-(4′-(diisobutylamino)-3′-(3-p-tolylureido)biphenyl-2-yl) methanesulfonamide] had an IC50 of 5770 nM. Then `CCN(c1ccc(-c2ccccc2-c2nnn[nH]2)cc1NC(=O)Nc1ccc(C)cc1)C1CCCC1` [Example 75, 1-(4-(cyclopentyl(ethyl)amino)-2′-(1H-tetrazol-5-yl)biphenyl-3-yl)-3-p-tolylurea], with 3.24 nM; and `CCN(c1ccc(-c2ccccc2C(=O)O)cc1NC(=O)Nc1ccc(C)cc1)C1CCCC1` [Example 76, 4′-(cyclopentyl(ethyl)amino)-3′-(3-p-tolylureido)biphenyl-2-carboxylic acid], with 20 nM; and `CCN(c1ccc(-c2ccc(OC)c(C(=O)O)c2)cc1NC(=O)Nc1ccc(C)cc1)C1CCCC1` [Example 77, 4′-(cyclopentyl(ethyl)amino)-4-methoxy-3′-(3-p-tolylureido) biphenyl-3-carboxylic acid], with 3260 nM.

The molecule `COc1ccc(-c2ccc(N(C)C3CCCCCC3)c(NC(=O)Nc3ccc(C)cc3)c2)cc1C(=O)O` [Example 78, 4′-(cycloheptyl(methyl)amino)-4-methoxy-3′-(3-p-tolylureido)biphenyl-3-carboxylic acid] gave an IC50 of 1920 nM. Molecule `Cc1ccc(NC(=O)Nc2cc(-c3ccccc3-c3nnn[nH]3)ccc2N(C)C2CCCCCC2)cc1` [Example 79, 1-(4-(cycloheptyl(methyl)amino)-2′-(1H-tetrazol-5-yl)biphenyl-3-yl)-3-p-tolylurea] yielded an IC50 of 1.81 nM. Then `Cc1ccc(NC(=O)Nc2cc(-c3ccccc3C(=O)O)ccc2N(C)C2CCCCCC2)cc1` [Example 80, 4′-(cycloheptyl(methyl)amino)-3′-(3-p-tolylureido)biphenyl-2-carboxylic acid], with 8.75 nM; and `Cc1ccc(NC(=O)Nc2cc(-c3ccc(F)cc3NS(=O)(=O)C(F)(F)F)ccc2N(CC(C)C)CC(C)C)cc1` [Example 81, N-(4′-(diisobutylamino)-4-fluoro-3′-(3-p-tolylureido)biphenyl-2-yl)-1,1,1-trifluoromethane-sulfonamide], with 270 nM; and `Cc1ccc(NC(=O)Nc2cc(-c3ccccc3-c3nnn[nH]3)ccc2N(CC2CC2)C2CCCCC2)cc1` [Example 82, 1-(4-(cyclohexyl (cyclopropylmethyl)amino)-2′-(1H-tetrazol-5-yl)biphenyl-3-yl)-3-p-tolylurea], with 3.8 nM. Then `Cc1ccc(NC(=O)Nc2cc(-c3ccccc3C(=O)O)ccc2N(CC2CC2)C2CCCCC2)cc1` [Example 83, 4′-(cyclohexyl (cyclopropylmethyl)amino)-3′-(3-p-tolylureido)biphenyl-2-carboxylic acid], with 20 nM; and `Cc1ccc(NC(=O)Nc2cc(-c3ccccc3NS(=O)(=O)CC(F)(F)F)ccc2N(CC(C)C)CC(C)C)cc1` [Example 84, N-(4′-(diisobutylamino)-3′-(3-p-tolylureido)biphenyl-2-yl)-2,2,2-trifluoroethane-sulfonamide], with 2110 nM. `CCCN(c1ccc(-c2ccccc2-c2nnn[nH]2)cc1NC(=O)Nc1ccc(C)cc1)C1CCCCC1` [Example 85, 1-(4-(cyclohexyl(propyl)amino)-2′-(1H-tetrazol-5-yl)biphenyl-3-yl)-3-p-tolylurea] showed an IC50 of 1.65 nM. Then `CCCN(c1ccc(-c2ccccc2C(=O)O)cc1NC(=O)Nc1ccc(C)cc1)C1CCCCC1` [Example 86, 4′-(cyclohexyl(propyl)amino)-3′-(3-p-tolylureido)biphenyl-2-carboxylic acid], with 4.16 nM; and `CCCN(c1ccc(-c2cc(F)ccc2C(=O)O)cc1NC(=O)Nc1ccc(C)cc1)C1CCCCC1` [Example 87, 4′-(cyclohexyl (propyl)amino)-5-fluoro-3′-(3-p-tolylureido) biphenyl-2-carboxylic acid], with 3.68 nM.

As a reminder, the IC50 is the point on the concentration scale where inhibition reaches its midpoint. A high value points to weaker potency in that assay.
